# Measurements reported in patent US6204293A, “Inhibitors of protein isoprenyl transferases” (University of Pittsburgh, priority 1998, dated 2001).
# Counter-ions that a name gives are not always drawn. Like-named read-outs stand apart in the source and are kept apart here.
# Biological target: T1, Rat brain protein farnesyltransferase (Rattus norvegicus, UniProt Q02293+Q04631)
# T1 construct: Rat brain protein farnesyltransferase activity is measured; from tissue; host or cells: rat brain
# Experiment: % inhibition of farnesylation, scintillation proximity assay with biotin-K Ras B fragment
# Type: biochemical
# Details: for % inhibition at 1 × 10^-6 M: Table 2; for inhibition at 0.1 µM: read-out: % inhibition at 1 × 10^-7 M; for inhibition at 0.01 µM: read-out: % inhibition at 1 × 10^-8 M
# How it was run: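 Scintillation proximity read-out of farnesylation, using a biotinylated K Ras B fragment (0.1 mM final) in place of biotin-lamin. Enzyme purified from rat brain; results given as % inhibition.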
# T1 sequence (Q02293 whole entry, one chain of several): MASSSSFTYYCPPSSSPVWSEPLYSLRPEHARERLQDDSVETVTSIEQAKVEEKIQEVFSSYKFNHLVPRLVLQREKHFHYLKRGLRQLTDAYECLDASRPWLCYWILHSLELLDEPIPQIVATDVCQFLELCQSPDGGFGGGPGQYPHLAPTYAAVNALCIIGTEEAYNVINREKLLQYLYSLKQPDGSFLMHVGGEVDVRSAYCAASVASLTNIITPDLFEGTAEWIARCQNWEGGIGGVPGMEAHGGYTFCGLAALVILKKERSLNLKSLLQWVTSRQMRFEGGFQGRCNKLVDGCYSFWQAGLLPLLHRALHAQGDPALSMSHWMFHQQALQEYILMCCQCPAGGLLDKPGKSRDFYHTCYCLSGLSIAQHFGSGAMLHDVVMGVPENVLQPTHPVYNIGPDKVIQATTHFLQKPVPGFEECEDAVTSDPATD
smiles,measurement,setting,value
CSCC[C@H](NC(=O)c1ccc(/C=C/c2cnc(Oc3ccccc3)cn2)cc1-c1ccccc1C)C(=O)O [Example 812],% inhibition at 1 × 10^-6 M,,94%
CSCC[C@H](NC(=O)c1ccc(CCc2cnc(Oc3ccccc3)cn2)cc1-c1ccccc1C)C(=O)O [Example 813],% inhibition at 1 × 10^-6 M,,95%
"CSCC[C@H](NC(=O)c1ccc(COC2(c3ccccc3)CCN(C(=O)OC(C)(C)C)CC2)cc1-c1ccccc1C)C(=O)O [Example 816, N-[4-(1-t-butoxycarbonyl-4-phenylpiperidin-4-yloxymethyl)-2-(2-methylphenyl)benzoyl]methionine lithium salt]",inhibition at 1 µM,read-out: % inhibition at 1 × 10^-6 M,87%
"CSCC[C@H](NC(=O)c1ccc(COC2CCC(NC(=O)OC(C)(C)C)CC2)cc1-c1ccccc1C)C(=O)O (stereo partly drawn) [Example 817, N-[4-(4-t-butoxycarbonylaminocyclohexyloxymethyl)-2-(2-methylphenyl)benzoyl]methionine lithium salt]",inhibition at 0.1 µM,,60%
"CSCC[C@H](NC(=O)c1ccc(COCc2ccc(-c3ccc(Cl)cc3)o2)cc1-c1ccccc1C)C(=O)NS(C)(=O)=O [Example 818, N-[4-(5-(4-chlorophenyl)furan-2-ylmethoxymethyl)-2-(2-methylphenyl)benzoyl]methionine methanesulfonimide]",inhibition at 0.1 µM,"Table 3, 1 × 10^-7 M",78%
"CSCC[C@H](NC(=O)c1ccc(COCc2ccc(-c3ccc(Cl)cc3)o2)cc1-c1ccccc1C)C(=O)NS(=O)(=O)c1ccccc1 [Example 819, N-[4-(5-(4-chlorophenyl)furan-2-ylmethoxymethyl)-2-(2-methylphenyl)benzoyl]methionine benzenesulfonimide]",inhibition at 0.01 µM,"Table 4, 1 × 10^-8 M",76%
"CSCC[C@H](NC(=O)c1ccc(COCc2ccc(-c3ccc(C(C)C)cc3)o2)cc1-c1ccccc1C)C(=O)O [Example 820, N-[4-(5-(4-isopropylphenyl)furan-2-ylmethoxymethyl)-2-(2-methylphenyl)benzoyl]methionine lithium salt]",inhibition at 0.01 µM,,66%
"CSCC[C@H](NC(=O)c1ccc(COCc2ccc(-c3ccc(N(C)C)cc3)o2)cc1-c1ccccc1C)C(=O)O [Example 821, N-[4-(5-(4-N,N-dimethylaminophenyl)furan-2-ylmethoxymethyl)-2-(2-methylphenyl)benzoyl]methionine lithium salt]",inhibition at 0.01 µM,"Table 4, 1 × 10^-8 M",75%
"CSCC[C@H](NC(=O)c1ccc(COCC2CCC(c3ccc(Cl)cc3)O2)cc1-c1ccccc1C)C(=O)O (stereo partly drawn) [Example 822, N-[4-(5-syn(4chlorophenyl)tetrahydrofuran-2-ylmethoxymethyl)-2-(2-methylphenyl)benzoyl]methionine lithium salt]",inhibition at 0.1 µM,"Table 3, 1 × 10^-7 M",93%
CSCC[C@H](NC(=O)c1ccc(CN2CCC[C@H]2COCc2ccccc2)cc1-c1ccccc1C)C(=O)O [Example 824],% inhibition at 1 × 10^-6 M,,90%
"CCCCC(OCc1ccc(C(=O)N[C@@H](CCSC)C(=O)O)c(-c2ccccc2C)c1)c1ccco1 (stereo partly drawn) [Example 825, N-[4-(1-furan-2-ylpentyloxymethyl)-2-(2-methylphenyl)benzoyl]methionine lithium salt]",inhibition at 0.1 µM,,79%
"CCCCC(OCc1ccc(C(=O)N[C@@H](CCSC)C(=O)O)c(-c2ccccc2C)c1)c1ccc(-c2ccc(Cl)cc2)o1 (stereo partly drawn) [Example 826, N-[4-(1-(5-(4-chlorophenyl)furan-2-yl)pentyloxymethyl)-2-(2-methylphenyl)benzoyl]methionine lithium salt]",inhibition at 0.01 µM,,92%
"CSCC[C@H](NC(=O)c1ccc(COCc2occc2-c2ccc(Cl)cc2)cc1-c1ccccc1C)C(=O)O [Example 827, N-[4-(3-(4-chlorophenyl)furan-2-ylmethoxymethyl)-2-(2-methylphenyl)benzoyl]methionine lithium salt]",inhibition at 0.01 µM,,77%
"CSCC[C@H](NC(=O)c1ccc(COC(Cc2ccccc2)c2cncs2)cc1-c1ccccc1C)C(=O)O (stereo partly drawn) [Example 828, N-[4-(1-thiazol-5-yl-2-phenylethoxymethyl)-2-(2-methylphenyl)benzoyl]methionine lithium salt]",inhibition at 0.01 µM,,87%
"CSCC[C@H](NC(=O)c1ccc(COCc2oc(-c3ccc(Cl)cc3)c(Cl)c2Cl)cc1-c1ccccc1C)C(=O)O [Example 829, N-[4-(3,4-dichloro-5-(4-chlorophenyl)furan-2-ylmethoxymethyl)-2-(2-methylphenyl)benzoyl]methionine lithium salt]",inhibition at 0.01 µM,,92%
CSCC[C@H](NC(=O)c1ccc(CN(Cc2ccco2)C(C)C)cc1-c1ccccc1C)C(=O)O [Example 831],% inhibition at 1 × 10^-6 M,,92%
CSCC[C@H](NC(=O)c1ccc(CN(Cc2ccoc2)C(C)C)cc1-c1ccccc1C)C(=O)O [Example 832],% inhibition at 1 × 10^-6 M,,80%
CSCC[C@H](NC(=O)c1ccc(CN(Cc2ccccc2)Cc2ccccc2)cc1-c1ccccc1)C(=O)O [Example 834],% inhibition at 1 × 10^-6 M,,55%
CSCC[C@H](NC(=O)c1ccc(CN(CCc2ccccc2)C(C)C)cc1-c1ccccc1C)C(=O)O [Example 835],% inhibition at 1 × 10^-6 M,,96%
CSCC[C@H](NC(=O)c1ccc(CN(Cc2ccccc2)c2cncnc2)cc1-c1ccccc1C)C(=O)O [Example 836],% inhibition at 1 × 10^-8 M,"Table 4, 1 × 10^-8 M",95%
CSCC[C@H](NC(=O)c1ccc(CN(Cc2ccc3c(c2)OCO3)c2cncnc2)cc1-c1ccccc1C)C(=O)O [Example 837],% inhibition at 1 × 10^-8 M,"Table 4, 1 × 10^-8 M",91%
CSCC[C@H](NC(=O)c1ccc(CN(Cc2ccc3c(c2)OCO3)c2cnccn2)cc1-c1ccccc1C)C(=O)O [Example 838],% inhibition at 1 × 10^-8 M,"Table 4, 1 × 10^-8 M",92%
COc1ccccc1N(Cc1ccccc1)Cc1ccc(C(=O)N[C@@H](CCSC)C(=O)O)c(-c2ccccc2C)c1 [Example 839],% inhibition at 1 × 10^-7 M,"Table 3, 1 × 10^-7 M",63%
COc1ccc(N(Cc2ccccc2)Cc2ccc(C(=O)N[C@@H](CCSC)C(=O)O)c(-c3ccccc3C)c2)cc1 [Example 840],% inhibition at 1 × 10^-8 M,"Table 4, 1 × 10^-8 M",73%
CSCC[C@H](NC(=O)c1ccc(CN(Cc2ccccc2)c2cccc([N+](=O)[O-])c2)cc1-c1ccccc1C)C(=O)[O-].[Li+] [Example 842],% inhibition at 1 × 10^-8 M,"Table 4, 1 × 10^-8 M",88%
CSCC[C@H](NC(=O)c1ccc(CN(Cc2ccccc2)c2ccc([N+](=O)[O-])cc2)cc1-c1ccccc1C)C(=O)O [Example 843],% inhibition at 1 × 10^-8 M,"Table 4, 1 × 10^-8 M",96%
CSCC[C@H](NC(=O)c1ccc(CN(Cc2ccccc2)c2ccccc2C(C)=O)cc1-c1ccccc1C)C(=O)O [Example 844],% inhibition at 1 × 10^-6 M,,92%
CSCC[C@H](NC(=O)c1ccc(CN(Cc2ccccc2)c2cccc(C(C)=O)c2)cc1-c1ccccc1C)C(=O)O [Example 845],% inhibition at 1 × 10^-8 M,"Table 4, 1 × 10^-8 M",85%
CSCC[C@H](NC(=O)c1ccc(CN(Cc2ccccc2)c2ccccc2Cl)cc1-c1ccccc1C)C(=O)O [Example 846],% inhibition at 1 × 10^-6 M,,85%
CSCC[C@H](NC(=O)c1ccc(CN(Cc2ccccc2)c2cccc(Cl)c2)cc1-c1ccccc1C)C(=O)O [Example 847],% inhibition at 1 × 10^-8 M,"Table 4, 1 × 10^-8 M",85%
CSCC[C@H](NC(=O)c1ccc(CN(Cc2ccccc2)c2ccc(Cl)cc2)cc1-c1ccccc1C)C(=O)O [Example 848],% inhibition at 1 × 10^-8 M,"Table 4, 1 × 10^-8 M",87%
CSCC[C@H](NC(=O)c1ccc(CN(Cc2ccccc2)c2ccccc2[N+](=O)[O-])cc1-c1ccccc1C)C(=O)[O-].[Li+] [Example 849],% inhibition at 1 × 10^-7 M,"Table 3, 1 × 10^-7 M",66%
CSCC[C@H](NC(=O)c1ccc(CN(Cc2ccccc2)c2ccccc2SC)cc1-c1ccccc1C)C(=O)[O-].[Li+] [Example 850],% inhibition at 1 × 10^-6 M,,90%
CSCC[C@H](NC(=O)c1ccc(CN(Cc2ccccc2)c2cccc(SC)c2)cc1-c1ccccc1C)C(=O)[O-].[Li+] [Example 851],% inhibition at 1 × 10^-8 M,"Table 4, 1 × 10^-8 M",82%
CSCC[C@H](NC(=O)c1ccc(CN(Cc2ccccc2)c2ccc(SC)cc2)cc1-c1ccccc1C)C(=O)[O-].[Li+] [Example 852],% inhibition at 1 × 10^-8 M,"Table 4, 1 × 10^-8 M",79%
CSCC[C@H](NC(=O)c1ccc(CN(Cc2ccccc2)c2ccc(C(F)(F)F)cc2)cc1-c1ccccc1C)C(=O)O [Example 853],% inhibition at 1 × 10^-8 M,"Table 4, 1 × 10^-8 M",85%
CSCC[C@H](NC(=O)c1ccc(/C=C/c2ccc(Oc3ccccc3Cl)cc2)cc1-c1ccccc1C)C(=O)O [Example 854],% inhibition at 1 × 10^-7 M,"Table 3, 1 × 10^-7 M",78%
CSCC[C@H](NC(=O)c1ccc(CCc2ccc(Oc3ccccc3Cl)cc2)cc1-c1ccccc1C)C(=O)O [Example 855],% inhibition at 1 × 10^-7 M,"Table 3, 1 × 10^-7 M",92%
CSCC[C@H](NC(=O)c1ccc(/C=C/c2ccc(Oc3ccccc3[N+](=O)[O-])cc2)cc1-c1ccccc1C)C(=O)O [Example 856],% inhibition at 1 × 10^-7 M,"Table 3, 1 × 10^-7 M",97%
CSCC[C@H](NC(=O)c1ccc(CCc2ccc(Oc3ccccc3N)cc2)cc1-c1ccccc1C)C(=O)O [Example 857],% inhibition at 1 × 10^-7 M,"Table 3, 1 × 10^-7 M",92%
CSCC[C@H](NC(=O)c1ccc(/C=C/c2ccc(Oc3cccc(Cl)c3)cc2)cc1-c1ccccc1C)C(=O)O [Example 858],% inhibition at 1 × 10^-8 M,"Table 4, 1 × 10^-8 M",60%
CSCC[C@H](NC(=O)c1ccc(CCc2ccc(Oc3cccc(Cl)c3)cc2)cc1-c1ccccc1C)C(=O)O [Example 859],% inhibition at 1 × 10^-7 M,"Table 3, 1 × 10^-7 M",86%
CSCC[C@H](NC(=O)c1ccc(CCc2ccc(Oc3ccc(Cl)cc3)cc2)cc1-c1ccccc1C)C(=O)O [Example 860],% inhibition at 1 × 10^-8 M,"Table 4, 1 × 10^-8 M",85%
CSCC[C@H](NC(=O)c1ccc(/C=C/c2ccc(Oc3cccc([N+](=O)[O-])c3)cc2)cc1-c1ccccc1C)C(=O)O [Example 861],% inhibition at 1 × 10^-7 M,"Table 3, 1 × 10^-7 M",65%
CSCC[C@H](NC(=O)c1ccc(CNc2ccc(N3CCCCC3)cc2)cc1-c1ccccc1C)C(=O)O [Example 862],% inhibition at 1 × 10^-6 M,,95%
